Where “and” joins values, the source holds several entries; their conditions need not be identical. Equal entries are not always repeated.
Columns and labels:
[1] = system: EAMG rats; assay: 14-day dosing in EAMG animals: bodyweight and study completion; format: in vivo, rat
Experimental: (§1) To induce EAMG, 250 μL of emulsion of Complete Freund's Adjuvant, consisting of heat-inactivated Mycobacterium tuberculosis H37Ra in non-metabolizable oils, together with Phosphate-Buffered Saline (PBS) and 80 μg of the extracellular α-domain peptide fragment of the human nicotinic acetylcholine receptor (antigen) was injected subcutaneously in seven-week-old, anaesthetized Lewis rats. The disease-inducing antigen was supplied by the Hellenic Pasteur institute3. The emulsion was deposited at the tail base, left hindleg, and right foreleg. After injection, animals were allowed to recover and returned to their home cage maintained in ventilated racks under controlled temperature (20 to 22° C.) and humidity (˜55%) control, under a 12-h light/12-h dark cycle with food and water provided ad libitum. The animals had pathogen free status and the housing and changing system was designed to assure that the pathogen free status was preserved during the study. The EAMG rats were observed, weighed, and scored for MG symptoms weekly until symptoms of MG developed, whereafter animals were observed daily.
Sixteen (16) rats with an EAMG clinical score of 2 were allocated to the study and stratified to one of the two treatment groups (vehicle vs NMD670, 8 rats per group). […] Grip strength and Rotarod performance were measured prior to treatment (day 0) and on days 1, 4, 7, 9, 11 and 14 during treatment. […]

[2] = system: EAMG rats; assay: Grip strength test after single dose of Mestinon and CIC-1 inhibitor alone or in combination; format: in vivo, rat
Experimental: as §1
In EAMG animals with severe MG symptoms the effects of CIC-1 inhibitor and Mestinon (pyridostigmine) alone or in combination was assessed. […] The study was blinded to both the experimenter and during subsequent analysis. Animals were subjected to grip strength test before compound administration, as described above and then dosed per oral with either 0.375 mg/kg pyridostigmine bromide (Mestinon) (CAS-no 101-26-8), 20 mg/kg NMD670 or a combination of both pyridostigmine and NMD670. Grip strength was tested 45 minutes post dosing. […] The change in grip strengths was calculated for individual animals relative to the results obtained prior to administration of test article and then averaged.
Grip strength was measured on a BIOSEB BIO-GT3 Grip strength meter (force transducer, S/N 180271). […] Care was taken to ensure that the force recorded reflected the grip strength of the rat and not the force of the pulls conducted by the operator. […]

[3] = system: patients with myasthenia gravis; assay: Phase IIA clinical trial (Part C): repetitive nerve stimulation (CMAP decrement, nasalis muscle); format: in vivo, human; details: for RNS decrement responders / Patients with RNS decrement at baseline who recovered (less than 5% decrement): 3- and 5-hour measurements; for RNS decrement responders: placebo 0%
Experimental: For each subject, the study consisted of three study periods during which subjects received either a single dose of NMD670 400 mg, NMD670 1200 mg, or placebo with a 7-day washout period between visits. On these study visits, subjects were asked to refrain from their regular dose of pyridostigmine (if applicable) from 14 h before dosing until after the last pharmacodynamic measurement on Day 1 (see Table 13: Visit and Assessment Schedule). The cross-over design allowed intra-individual comparison of drug effects versus placebo (see FIG. 16). A balanced design was applied to control for first-order carry-over effects.
Part C was a double-blinded, placebo-controlled, three-way cross-over comparison of two single oral doses of NMD670 in men and women with stable symptomatic myasthenia gravis. 12 patients were enrolled. For each subject, the study consisted of three study periods during which subjects received either a single dose of NMD670 or placebo. On these study visits, subjects were asked to refrain from their regular dose of pyridostigmine (if applicable) for 14 hours before dosing. Single doses were administered in randomized order (400 mg free acid, 1200 mg free acid, or placebo p.o.), with a 7-day washout period between visits (FIG. 16). NMD670/placebo was administered with 240 ml of still water.
RNS uses trains of 10 supramaximal electrical stimuli at 3 and 5 Hz using a Medelec Synergy 11.0. The optimal stimulation site on the skin is identified using inframaximal stimuli, after which the limit of supramaximal intensity is established. The working intensity is about 130% of that threshold. RNS is performed on the facial nerve/nasalis muscle combination. Techniques have been described previously (Niks et al., Muscle & Nerve, 2003, 28(2):236-238; Ruys-Van Oeyen et al., Muscle & Nerve, 2002, 26(2):279-282; Schumm et al., Muscle & Nerve, 1984, 7(2):147-151).
Compound Muscle Action Potentials (CMAPs) were recorded from the nasalis muscle in response to nerve stimulation. Decrement refers to decline in CMAP amplitude during repeated stimulation and indicates neuromuscular transmission failure.

[4] = system: soleus muscle fibres from healthy and EAMG rats; assay: Rheobase current (muscle fibre excitability) in soleus muscle fibres; format: cell-based, rat; details: 20 μM NMD670; soleus muscle fibres from healthy (n=20) and EAMG (n=12) rats, before vs after addition
From the text: To allow for measurements of electrophysiological properties at the cellular level and for measurements of force, it was necessary to isolate nerve-muscle preparations from the rats. To this end, animals were sacrificed, and muscles were dissected out with 1 to 3 cm of intact nerve. The nerve-muscle preparations were then transferred to the organ baths used for the particular experiments (see below) and perfused with Normal Krebs-Ringer (NKR) solution, consisting of (in mM); 122 NaCl, 25 NaHCO3, 2.8 KCl, 1.2 KH2PO4, 1.2 MgSO4 1.27 CaCl2 and 5 D-glucose. This NKR solution was continuously gassed with a mixture of 95% oxygen and 5% CO2, to maintain a pH of approx. 7.4. In some experiments methyl-sulphate was used to replace Cl^− in the solution. All chemicals used were of analytical grade.

C[C@H](Oc1ccc(Br)cc1-c1ccon1)C(=O)O [NMD670, (2S)-2-[4-bromo-2-(1,2-oxazol-3-yl)phenoxy]propanoic acid]
Loss of body weight versus vehicle ([1]; 14-day chronic dosing, EAMG animals, 20 mg/kg twice daily (b36 prints 40 mg/kg BID)): attenuation in loss of body weight | Treated rats that completed the study ([1]; 14-day study, early termination when body weight below 80% of maximum, vehicle 3 out of 8): 6 of the 8 | Grip strength after administration (significance vs vehicle) ([2]; 45 minutes after dosing, 20 mg/kg NMD670, or with 0.375 mg/kg Mestinon): significantly increased | Increase in Pulled Force (%) ([2]; per oral, 45 minutes post dosing, 0.375 mg/kg Mestinon, 20 mg/kg NMD670 or both): 15±5% and 14.5 ± 5.1% | Treatment effect on CMAP decrement (continuous measurements) ([3]; 400 mg and 1200 mg single doses, nasalis muscle): No significant treatment effects and no trends of dose-dependent effects | RNS decrement responders ([3]; 400 mg arm): 83% | Patients with RNS decrement at baseline who recovered (less than 5% decrement) ([3]; 400 mg arm, of 6 subjects with decrement at baseline): 5 subjects | RNS decrement responders ([3]; 1200 mg arm): 33% | Patients with RNS decrement at baseline who recovered (less than 5% decrement) ([3]; 1200 mg arm, of 3 subjects with decrement at baseline): 1 subjects | Rheobase current [4]: significantly reduced rheobase current

Source: patent publication US20260102377A1, “COMPOSITIONS AND METHODS FOR TREATING MYASTHENIA GRAVIS” (priority 2022, published 2026)
